According to patent publication US10920230B2, “Methylotrophs for aquaculture and animal feed” (KnipBio, Inc., priority 2013, dated 2021):
Values after ≈ are worked out from the molar mass of the structure shown.

Tests used:
[1] = tested on: cumate inducible PmxaF promoter; assay: Fluorescence-based mCherry expression assay, pHC115m; assay type: cell-based, M. extorquens; details: uninduced 15.6±1.5
Procedure: Assays to measure levels of mCherry protein expression were performed as follows. For dose-dependent response curves, M. extorquens strains harboring pJP18T or pJP22T were grown to saturation in 10 mL of Hypho-succinate medium. These cultures were then diluted 1:200 in fresh medium, followed by 630 μL aliquots being dispensed to clear, flat-bottom, 48-well microtiter plates (Costar). Cultures were grown for 4 hours on a plate shaking tower (Caliper) at 150 rpm in a 30° C. humidified room. After 4 hours of growth, 10 μl of fresh medium containing Q or aTc was added to supply Q and aTc at desired concentrations. Cultures were allowed to continue growth for an additional 24 hours prior to fluorescence (excitation 587 nm/emission 610 nm) and optical density (600 nm) measurements made using a Tecan Safire2 plate reader. Relative fluorescence values reported are: Relative fluorescence (A.U.)=RFU/OD600*10^−3.

PR/tetO promoter = assay: Fluorescence-based mCherry expression assay, pJP22T; assay type: cell-based, M. extorquens
Source text: (§1) A desirable property for regulated expression systems is for levels of gene expression from the promoter to be proportional to the concentration of inducer. In order to explore the range of induction of PR/cmtO and PR/tetO, the promoters along with their respective regulatory proteins were introduced onto broad-host-range plasmids (IncP compatibility group) to create the expression vectors pLC290 and pLC291 (FIG. 8 in U.S. Ser. No. 61/863,701). […] We placed the red-fluorescent protein variant mCherry under the control of each promoter in pLC290 and pLC291 and introduced the resulting vectors (pJP18T and pJP22T) into M. extorquens. To induce expression from PR/cmtO and PR/tetO, we supplied varied concentrations of cumate (Q) and anhydrotetracycline (aTc), respectively, to M. extorquens cultures.
(§2) Assays to measure levels of mCherry protein expression were performed as follows. For dose-dependent response curves, M. extorquens strains harboring pJP18T or pJP22T were grown to saturation in 10 mL of Hypho-succinate medium. […] Cultures were allowed to continue growth for an additional 24 hours prior to fluorescence (excitation 587 nm/emission 610 nm) and optical density (600 nm) measurements made using a Tecan Safire2 plate reader. Relative fluorescence values reported are: Relative fluorescence (A.U.)=RFU/OD600*10^−3.

PR/cmtO promoter = assay: Fluorescence-based mCherry expression assay, pJP18T; assay type: cell-based, M. extorquens
Source text: as §1, §2

[2] = tested on: wild-type B. fungorum LB400; assay: microbe, parasite or virus in culture; details: Paraburkholderia fungorum
Procedure: The minimal inhibitory concentration (MIC) of formaldehyde was determined by comparing the rate and extent of colony formation of wild-type B. fungorum LB400 to that of the flhA mutants CM363K.1 and CM363.1 on solid medium containing succinate as a growth substrate with various concentrations of formaldehyde. Formaldehyde was added to the plates immediately prior to the addition of the molten agar.

Structure (SMILES): CC(C)c1ccc(C(=O)O)cc1 [Q, p-isopropyl benzoate]
- relative fluorescence, induced [1]: 157.1±3.7 A.U.
- relative fluorescence (crosstalk) (PR/tetO promoter; pJP22T with the non-cognate inducer, grown in succinate, uninduced 1.0): 1.1 A.U.
- induction (regulatory range) (PR/cmtO promoter; induced versus uninduced): 10 fold

Structure (SMILES): Cc1c2c(c(O)c3c(O)cccc13)C(=O)[C@]1(O)C(=O)C(C(N)=O)=C(O)[C@@H](N(C)C)[C@@H]1C2 [aTc, anhydrotetracycline]
- induction (regulatory range) (PR/tetO promoter; induced versus uninduced): 30 fold
- relative fluorescence (crosstalk) (PR/cmtO promoter; pJP18T with the non-cognate inducer, grown in succinate, uninduced 4.6): 4.2 A.U.

Structure (SMILES): C=O [formaldehyde]
- MIC [2]: 200 µM (≈ 6.01 µg/mL)
